Measurements from ChEMBL document CHEMBL4706628, “Ligand-based optimization to identify novel 2-aminobenzo[d]thiazole derivatives as potent sEH inhibitors with anti-inflammatory effects” (Eur J Med Chem, 2021).

Assays:
[1] = biological target: T1, Bifunctional epoxide hydrolase 2 (Homo sapiens) (UniProt P34913); assay: Inhibition of recombinant human sEH at 100 nM using PHOME as substrate measured after 15 mins by fluorescence assay relative to control
T1 sequence (whole entry): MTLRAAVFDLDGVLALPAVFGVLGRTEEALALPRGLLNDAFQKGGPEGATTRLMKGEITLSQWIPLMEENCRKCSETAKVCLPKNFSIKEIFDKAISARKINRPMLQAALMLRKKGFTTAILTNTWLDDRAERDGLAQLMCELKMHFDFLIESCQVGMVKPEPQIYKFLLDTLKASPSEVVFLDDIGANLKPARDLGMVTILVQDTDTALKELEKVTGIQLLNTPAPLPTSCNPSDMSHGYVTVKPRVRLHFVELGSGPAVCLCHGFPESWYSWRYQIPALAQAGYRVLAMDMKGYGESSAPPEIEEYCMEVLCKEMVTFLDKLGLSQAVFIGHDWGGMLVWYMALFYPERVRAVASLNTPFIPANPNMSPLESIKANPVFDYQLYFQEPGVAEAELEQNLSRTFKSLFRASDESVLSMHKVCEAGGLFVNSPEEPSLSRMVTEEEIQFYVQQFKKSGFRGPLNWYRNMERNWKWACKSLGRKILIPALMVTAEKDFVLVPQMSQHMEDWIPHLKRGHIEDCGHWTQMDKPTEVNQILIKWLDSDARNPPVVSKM

[2] = biological target: T2, Bifunctional epoxide hydrolase 2 (Homo sapiens, UniProt P34913); assay: Inhibition of recombinant human sEH using PHOME as substrate measured after 15 mins by fluorescence assay
T2 sequence (P34913 whole entry): T1 sequence (whole entry)

Mus musculus [3] = assay: Antiinflammatory activity in BALB/c mouse model of carrageenan-induced paw edema assessed as paw thickness at 100 mg/kg, ip pretreated for 1 hr followed by carrageenan challenge and measured after 1 hr by caliper method (reference value: 3.51 +/- 0.19 millimeter); format: functional; settings: time 2 hrs
Mus musculus [4] = assay: Antiinflammatory activity in BALB/c mouse model of carrageenan-induced paw edema assessed as paw edema at 100 mg/kg, ip pretreated for 1 hr followed by carrageenan challenge and measured after 1 hr by caliper method relative to control; format: functional; settings: time 2 hrs
Mus musculus [5] = assay: Antiinflammatory activity in BALB/c mouse model of carrageenan-induced paw edema assessed as paw thickness at 100 mg/kg, ip pretreated for 1 hr followed by carrageenan challenge and measured after 2 hrs by caliper method (reference value: 3.56 +/- 0.29 millimeter); format: functional; settings: time 3 hrs
Mus musculus [6] = assay: Antiinflammatory activity in BALB/c mouse model of carrageenan-induced paw edema assessed as paw edema at 100 mg/kg, ip pretreated for 1 hr followed by carrageenan challenge and measured after 2 hrs by caliper method relative to control; format: functional; settings: time 3 hrs
Mus musculus [7] = assay: Antiinflammatory activity in BALB/c mouse model of carrageenan-induced paw edema assessed as paw thickness at 100 mg/kg, ip pretreated for 1 hr followed by carrageenan challenge and measured after 3 hrs by caliper method (reference value: 3.61 +/- 0.36 millimeter); format: functional; settings: time 4 hrs
Mus musculus [8] = assay: Antiinflammatory activity in BALB/c mouse model of carrageenan-induced paw edema assessed as paw edema at 100 mg/kg, ip pretreated for 1 hr followed by carrageenan challenge and measured after 3 hrs by caliper method relative to control; format: functional; settings: time 4 hrs
Mus musculus [9] = assay: Antiinflammatory activity in BALB/c mouse model of carrageenan-induced paw edema assessed as paw thickness at 100 mg/kg, ip pretreated for 1 hr followed by carrageenan challenge and measured after 4 hrs by caliper method (reference value: 3.60 +/- 0.12 millimeter); format: functional; settings: time 5 hrs
Mus musculus [10] = assay: Antiinflammatory activity in BALB/c mouse model of carrageenan-induced paw edema assessed as paw edema at 100 mg/kg, ip pretreated for 1 hr followed by carrageenan challenge and measured after 4 hrs by caliper method relative to control; format: functional; settings: time 5 hrs
in vitro [11] = settings: Sprague-Dawley, rat, liver microsomes
Description: Half life in Sprague-Dawley rat liver microsomes at 10 uM measured up to 60 mins in presence of NADPH regenerating system by HPLC analysis

in vitro [12] = settings: Sprague-Dawley, rat, liver microsomes; remark: listed apart in the source
in vitro [13] = settings: Sprague-Dawley, rat, liver microsomes; remark: listed apart in the source
in vitro [14] = settings: Sprague-Dawley, rat, liver microsomes; remark: listed apart in the source
Description: Stability in Sprague-Dawley rat liver microsomes assessed as parent compound remaining at 10 uM measured after 60 mins in presence of NADPH regenerating system by HPLC analysis

in vitro [15] = settings: Sprague-Dawley, rat, liver microsomes; remark: listed apart in the source
Description: Stability in Sprague-Dawley rat liver microsomes assessed as parent compound remaining at 10 uM measured after 60 mins in absence of NADPH regenerating system by HPLC analysis

Row | Compound | inhibition [1] [%] | other results
1 | Nc1nc2ccc(NC(=O)NC3CCCCC3)cc2s1 | 59.9 | IC50 [2]: 4.1 nM
2 | Nc1ccc2nc(NC(=O)NCc3ccc(Cl)cc3)sc2c1 | 14.2 | –
3 | Cc1ccccc1NC(=O)N(CCN1CCOCC1)c1ccc2nc(N)sc2c1 | 26.3 | –
4 | Nc1nc2ccc(N(CCN3CCOCC3)C(=O)Nc3cccc(C(F)(F)F)c3)cc2s1 | 6.18 | –
5 | CCN(CC)CCN(C(=O)Nc1ccc(Cl)cc1)c1ccc2nc(N)sc2c1 | 86.3 | IC50 [2]: 24.5 nM
6 | Nc1nc2ccc(NC(=O)NC34CC5CC(CC(C5)C3)C4)cc2s1 | 77.3 | IC50 [2]: 822 nM
7 | O=C(Cc1ccc(Br)cc1)Nc1nc2ccc(N(CCN3CCOCC3)C(=O)Nc3ccc(Cl)cc3)cc2s1 | 70.6 | –
8 | CCc1ccc(NC(=O)N(CCN2CCOCC2)c2ccc3nc(NC(=O)Cc4ccccc4F)sc3c2)cc1 | 85.2 | IC50 [2]: 5.4 nM
9 | Nc1nc2ccc(N(CCN3CCOCC3)C(=O)Nc3ccc(Cl)cc3Cl)cc2s1 | 58.4 | –
10 | Nc1nc2ccc(N(CCN3CCOCC3)C(=O)Nc3ccccc3Cl)cc2s1 | 59.7 | –
11 | CC(=O)Nc1ccc2nc(NC(=O)Nc3ccc(Cl)cc3)sc2c1 | 12.5 | –
12 | Nc1nc2ccc(N(CCN3CCOCC3)C(=O)Nc3ccc(OC(F)(F)F)cc3)cc2s1 | 61.3 | –
13 | CC(=O)c1ccc(NC(=O)N(CCN2CCOCC2)c2ccc3nc(N)sc3c2)cc1 | 28.2 | –
14 | Nc1nc2ccc(NC(=O)Nc3ccccc3)cc2s1 | 40.1 | –
15 | O=C(CCc1ccccc1)Nc1nc2ccc(N(CCN3CCOCC3)C(=O)Nc3ccc(Cl)cc3)cc2s1 | 77.7 | –
16 | O=C(Cc1ccccc1F)Nc1nc2ccc(N(CCN3CCOCC3)C(=O)Nc3ccc(F)c(Br)c3)cc2s1 | 73.8 | –
17 | CC(=O)Nc1nc2ccc(N(CCN3CCOCC3)C(=O)Nc3ccc(Cl)cc3)cc2s1 | 68.1 | –
18 | CN(C)CCN(C(=O)Nc1ccc(Cl)cc1)c1ccc2nc(N)sc2c1 | 39.1 | –
19 | Nc1nc2ccc(N(CCCN3CCOCC3)C(=O)Nc3ccc(Cl)cc3)cc2s1 | 9.44 | –
20 | CCc1ccc(NC(=O)N(CCN2CCOCC2)c2ccc3nc(NC(=O)Cc4ccccc4)sc3c2)cc1 | 76.8 | –
21 | Nc1nc2ccc(NC(=O)Nc3cccc4ccccc34)cc2s1 | 34.1 | –
22 | Nc1ccc2nc(NC(=O)Nc3ccc(Cl)cc3)sc2c1 | 6.7 | –

Row | Compound | inhibition [1] [%] | other results
23 | O=C(Cc1ccc(Cl)cc1)Nc1nc2ccc(N(CCN3CCOCC3)C(=O)Nc3ccc(Cl)cc3)cc2s1 | 71.9 | –
24 | CC(=O)Nc1ccc2nc(NC(=O)NCc3ccc(Cl)cc3)sc2c1 | 14.5 | –
25 | Cc1ccc(NC(=O)N(CCN2CCOCC2)c2ccc3nc(N)sc3c2)cc1 | 73.1 | IC50 [2]: 8.3 nM
26 | CC1CCN(CCN(C(=O)Nc2ccc(Cl)cc2)c2ccc3nc(N)sc3c2)CC1 | 77.5 | IC50 [2]: 20.2 nM
27 | CC(=O)Nc1ccc(NC(=O)N(CCN2CCOCC2)c2ccc3nc(N)sc3c2)cc1 | 59.4 | –
28 | O=C(Nc1nc2ccc(N(CCN3CCOCC3)C(=O)Nc3ccc(Cl)cc3)cc2s1)C1CC1 | 32.5 | –
29 | Nc1nc2ccc(NC(=O)NCc3ccc(Cl)cc3)cc2s1 | 47 | –
30 | O=C(Cc1ccccc1)Nc1nc2ccc(N(CCN3CCOCC3)C(=O)Nc3ccc(F)c(Br)c3)cc2s1 | 74.2 | –
31 | Nc1nc2ccc(N(CCN3CCOCC3)C(=O)Nc3cccc(Cl)c3)cc2s1 | 36.5 | –
32 | O=C(NC12CC3CC(CC(C3)C1)C2)N[C@H]1CC[C@H](Oc2ccc(C(=O)O)cc2)CC1 | – | Activity (Mus musculus [3]): 3.3 mm; Activity (Mus musculus [4]): 25.01%; Activity (Mus musculus [5]): 3.23 mm; Activity (Mus musculus [6]): 22.61%; Activity (Mus musculus [7]): 3.29 mm; Activity (Mus musculus [8]): 24.98%; Activity (Mus musculus [9]): 3.28 mm; Activity (Mus musculus [10]): 24.71%
33 | CN1CCN(CCN(C(=O)Nc2ccc(Cl)cc2)c2ccc3nc(N)sc3c2)CC1 | 45.9 | –
34 | Nc1nc2ccc(NC(=O)Nc3ccc(Cl)cc3)cc2s1 | 76.1 | IC50 [2]: 10.1 nM
35 | O=C(Nc1nc2ccc(N(CCN3CCOCC3)C(=O)Nc3ccc(Cl)cc3)cc2s1)c1ccc(F)cc1 | 64 | –
36 | Nc1nc2ccc(N(CCN3CCCC3)C(=O)Nc3ccc(Cl)cc3)cc2s1 | 48.3 | –
37 | CCc1ccc(NC(=O)N(CCN2CCOCC2)c2ccc3nc(N)sc3c2)cc1 | 84.7 | IC50 [2]: 1.9 nM
38 | COc1ccc(NC(=O)Nc2ccc3nc(N)sc3c2)cc1 | 39.3 | –
39 | CN1CCN(C(=O)Nc2nc3ccc(N(CCN4CCOCC4)C(=O)Nc4ccc(Cl)cc4)cc3s2)CC1 | 64 | –
40 | CC(C)c1ccc(NC(=O)N(CCN2CCOCC2)c2ccc3nc(N)sc3c2)cc1 | 75.2 | IC50 [2]: 11.2 nM
41 | O=C(Cc1ccc(F)cc1)Nc1nc2ccc(N(CCN3CCOCC3)C(=O)Nc3ccc(Cl)cc3)cc2s1 | 74.9 | –
42 | Nc1nc2ccc(N(CCN3CCOCC3)C(=O)Nc3ccc([N+](=O)[O-])cc3)cc2s1 | 19.2 | –
43 | Nc1nc2ccc(N(CCN3CCOCC3)C(=O)Nc3ccccn3)cc2s1 | 16.2 | –
44 | O=C(Cc1ccc(Cl)cc1Cl)Nc1nc2ccc(N(CCN3CCOCC3)C(=O)Nc3ccc(Cl)cc3)cc2s1 | 71.8 | –

Row | Compound | inhibition [1] [%] | other results
45 | Nc1nc2ccc(N(CCN3CCOCC3)C(=O)Nc3ccc(F)cc3)cc2s1 | 74.3 | –
46 | Cc1cccc(NC(=O)N(CCN2CCOCC2)c2ccc3nc(N)sc3c2)c1 | 61.7 | IC50 [2]: 101 nM
47 | O=C(Nc1ccc(Cl)cc1)Nc1nc2ccc([N+](=O)[O-])cc2s1 | 7.2 | –
48 | Nc1nc2ccc(N(CCN3CCOCC3)C(=O)Nc3cccc4ccccc34)cc2s1 | 39 | IC50 [2]: 151 nM
49 | O=C(NCc1ccc(Cl)cc1)Nc1nc2ccc([N+](=O)[O-])cc2s1 | 10.9 | –
50 | O=C(Nc1nc2ccc(N(CCN3CCOCC3)C(=O)Nc3ccc(Cl)cc3)cc2s1)c1ccccc1 | 48.8 | –
51 | NC(=O)Nc1ccc2nc(N)sc2c1 | 25.3 | –
52 | Nc1nc2ccc(N(CCN3CCOCC3)C(=O)Nc3ccccc3)cc2s1 | 40.4 | –
53 | COc1ccc(CC(=O)Nc2nc3ccc(N(CCN4CCOCC4)C(=O)Nc4ccc(Cl)cc4)cc3s2)cc1 | 65.8 | –
54 | CC(C)Oc1ccc(NC(=O)N(CCN2CCOCC2)c2ccc3nc(N)sc3c2)cc1 | 56.6 | IC50 [2]: 122 nM
55 | Nc1nc2ccc(NC(=O)Nc3ccccn3)cc2s1 | 20.5 | –
56 | O=C(Cc1ccccc1F)Nc1nc2ccc(N(CCN3CCOCC3)C(=O)Nc3ccc(Cl)cc3)cc2s1 | 82.5 | IC50 [2]: 4.08 nM
57 | Nc1nc2ccc(N(CCN3CCOCC3)C(=O)Nc3ccc(C(F)(F)F)cc3)cc2s1 | 62 | –
58 | O=C(Nc1ccc(Cl)cc1)Nc1nc2ccc(NCCN3CCOCC3)cc2s1 | 16.2 | –
59 | Nc1nc2ccc(N(CCN3CCOCC3)C(=O)Nc3ccc(Br)cc3)cc2s1 | 83.8 | IC50 [2]: 16.2 nM
60 | Nc1nc2ccc(NC(=O)Nc3ccc(OC(F)(F)F)cc3)cc2s1 | 60.2 | –
61 | COc1ccc(CC(=O)Nc2nc3ccc(N(CCN4CCOCC4)C(=O)Nc4ccc(Cl)cc4)cc3s2)cc1F | 58.1 | –
62 | Nc1nc2ccc(N(CCN3CCOCC3)C(=O)NCc3ccc(Cl)cc3)cc2s1 | 14.5 | –
63 | O=C(O)Cc1ccccc1Nc1c(Cl)cccc1Cl [DICLOFENAC] | – | half-life at 1 h, 10 µM (in vitro [11]): 23.4 min; microsomal CLint at 1 h, 10 µM (in vitro [12]): 59.3 µL/min/mg; microsomal CLint at 1 h, 10 µM (in vitro [13]): 107 µL/min/mg; remaining at 1 h, 10 µM (in vitro [14]): 16.9%; remaining at 1 h, 10 µM (in vitro [15]): 96.3%
64 | Nc1nc2ccc(N(CCN3CCCCC3)C(=O)Nc3ccc(Cl)cc3)cc2s1 | 84.6 | IC50 [2]: 6.5 nM
